Assays:
[1] = parameters: method as in Bianchi et al. [30]; settings: I = 0.1 M KNO3, T = 25 °C; ref Bianchi et al. [30]; cited from earlier work
[2] = Stability constants of Cu2+ complexes by UV-vis spectrophotometric batch titrations; pCu2+ calculation; format: physicochemical; settings: for pCu^2+ (−log[Cu^2+]free): calculated at CL = 1 × 10^-5 M, CCu2+ = 1 × 10^-6 M, pH 7.4 from stability constants
Method: The stability constants (logβ) of the Cu^2+ complexes formed by NO3S and TACN-n-Bu were determined via UV–vis spectrophotometric titrations. Due to both the slow complexation kinetics observed at acidic pH (vide supra) and the high complex stability, batch titrations were conducted and heating was applied to speed up reaching the equilibrium condition.
The stability of the Cu^2+ complexes with TACN-n-Bu was assessed as well to investigate the role of the sulfanyl pendants in metal coordination. The UV–vis spectra recorded at different pH values are shown in Figure 3B, and the variation of the absorbance at λ = 295 nm is reported in Figure S16B. The pCu^2+ values were then computed (Figure 5): being defined as −log[Cu^2+]free, the higher the pCu^2+ value, the greater the stability of the considered metal–ligand complex.[23]−[25]
UV–vis pH-spectrophotometric titrations were carried out as previously reported by means of the out-of-cell method at T = 25 °C and I = 0.15 M NaNO3.[24],[25] Briefly, stock solutions of NO3S or TACN-n-Bu were mixed with Cu(NO3)2 in independent vials at a 1:1 metal-to-ligand ratio (CCu^2+ = CL = 1.0 × 10^–4 M). The pH was adjusted as described in the NMR experiments. The vials were sealed and heated to T = 60 °C in a thermostatic bath to ensure complete complexation and then cooled to ambient temperature. The absorption spectra were recorded, and equilibrium was considered to be reached when no variations in either the pH or the electronic spectra were detected over time.
The thermodynamic data were elaborated with the least-squares fitting program PITMAP as described in our previous works.[22]−[25] All equilibrium constants refer to the overall equilibrium pM^m+ + qH^+ + rL^l– ⇌ MpHqLr^pm+q–rl, where M = Cu^2+ and L = NO3S or TACN-n-Bu, respectively, and are defined as cumulative formation constants (logβpqr = [MpLqHr]/[M]^p[L]^q[H]^r).

[3] = Acidity constants (pKa) of the free ligands by pH-dependent 1H NMR; format: physicochemical; settings: water, T = 25 °C
Method: (§1) Subsequently, the acid–base properties of NO3S and TACN-n-Bu were appraised. This study is a prior fundamental step before the investigation of complexation equilibria, since the proton represents a competitor of the metal ion for the interaction with the donor sites having Brønsted and Lewis acid–base properties, such as the amines of the TACN scaffold. […] The ionic strength (I) was adjusted using 0.15 M NaNO3. […] Therefore, additional pKa measurements were performed in a 1:1 water/methanol mixture, where no precipitation was detected. The acidity constants of TACN-n-Bu were derived upon analysis of the pH-potentiometric titrations data and pH-dependent ^1H NMR spectra in water (Figure S9B). The acidity constant values of both ligands are gathered in Table 1 along with the values of the unsubstituted macrocycle (i.e., TACN) and the methyl-functionalized one (i.e., 1,4,7-trimethyl-1,4,7-triazacyclonane, TACN-Me) derived from the literature.[30]
However, the chemical shift of all of the other signals manifests a noticeable pH dependence. The most pronounced variation is experienced by the NCH2 protons of the ring, possibly because the deprotonation processes led to a marked relaxation of the ring constraint caused by the H^+−H^+ repulsions. An analogous pH dependency of the chemical shifts is observed for TACN-n-Bu, even if in this case a slowed exchange between the differently protonated forms can be recognized from the enlargement of the signals around pH = pKa,2. The data were fitted, and the corresponding protonation constants (Table 1) were obtained.
Small additions (∼μL) of HNO3 and/or NaOH were used to adjust the pH. The latter was measured as for the potentiometric measurements. Under highly acidic conditions, the pH was computed from the HNO3 concentration (pH = −logCH^+). An excitation sculpting pulse scheme was used to suppress the water signal.[32]
(§2) The thermodynamic data were elaborated with the least-squares fitting program PITMAP as described in our previous works.[22]−[25] […]

[4] = Acidity constants (pKa) of the free ligands by pH-potentiometric titration; format: physicochemical; settings: T = 25 °C, I = 0.15 M NaNO3
Method: as §1
Potentiometric titrations were conducted using an automated titrating system (Metrohm 765 Dosimat) equipped with a combined glass electrode (Hamilton pH 0–14) and a Metrohm 713 pH meter at T = 25 °C under a N2 atmosphere. NaNO3 (0.15 M) was used to fix the ionic strength. Stock solutions of NO3S and TACN-n-Bu were freshly prepared by dissolution of the synthesized compounds (∼10^–3 M). To avoid carbonatation phenomena and facilitate the dissolution, prestandardized HNO3 (CH^+ = 4CL) was coadded to each ligand solution. The solubility of the ligands in water depends on pH: minimal values occur at pH > 12, where the noncharged, totally deprotonated form predominates. All of the titrations were conducted as previously described.[22]−[25] […] Each titration was performed independently, at least in quintuplicate.
as §2

[5] = Formation kinetics of Cu2+ complexes by UV-vis spectroscopy (time to reach equilibrium); format: physicochemical; settings: ambient temperature
Method: The formation kinetics of the Cu^2+ complexes with NO3S and TACN-n-Bu was qualitatively appraised by UV–vis spectroscopy at ambient temperature and different pH values to explore the time necessary to reach equilibrium. The spectrum of NO3S and TACN-n-Bu as free ligands is also reported for comparison purposes in Figure S15.
The formation kinetics of Cu^2+ complexes with NO3S and TACN-n-Bu was evaluated at different pH values at room temperature using UV–vis spectroscopy as previously reported.[24],[25] Briefly, equimolar amounts of Cu^2+ and the proper ligands were mixed, and the corresponding UV–vis spectra were recorded over time. The final concentrations were CCu^2+ = CL = 1.0 × 10^–4 M. The pH was controlled using the following buffers: HCl 10^–2 M (pH = 2), acetic acid/acetate (pH = 4), and 2-[4-(2-hydroxyethyl)piperazin-1-yl]ethanesulfonic acid (HEPES) (pH = 7.1).

[6] = parameters: method as in PMID 35807404; settings: after 24 h; cited from earlier work
[7] = Cyclic voltammetry of the copper complex of NO3S (Cu2+/Cu+ couple); Cu+ stability constant and pCu+; format: physicochemical
Method: To assess the ability of NO3S to stably bind Cu^+, cyclic voltammetry (CV) analysis was executed. The investigation was performed in aqueous solution at pH ranging from 3 to 12. The obtained cyclic voltammograms, reported in Figure 7, show a peak couple attributable to the quasi-reversible one-electron reduction–oxidation process of the Cu^2+/Cu^+ redox pair (Table S9). No variation of the voltammetric behavior after multiple reduction–oxidation cycles was observed either with time or with the scan rate (except for the increase in the current intensity, i). This outcome is extremely significant because it proves the ability of NO3S to stabilize both copper oxidation states throughout the investigated pH range on the time scale of the CV experiments.
As illustrated in Figure 7 and Table S9, a pH-dependent variation of the cyclic voltammograms was found. […]
Bulk electrolysis of the preformed Cu^2+-NO3S complexes was carried out in a two-compartment cell. […] The electrolysis was performed at a fixed potential equal to E = −0.35 V and monitored by linear scan voltammetry on a rotating disk electrode. […] No variations of the ^1H NMR spectra were detected after 2 days (tubes were stored under a normal atmosphere). […]

[8] = Solubility in water observed during pKa measurements; format: physicochemical; settings: basic pH, precipitate observed
Method: as §1
Potentiometric titrations were conducted using an automated titrating system (Metrohm 765 Dosimat) equipped with a combined glass electrode (Hamilton pH 0–14) and a Metrohm 713 pH meter at T = 25 °C under a N2 atmosphere. NaNO3 (0.15 M) was used to fix the ionic strength. Stock solutions of NO3S and TACN-n-Bu were freshly prepared by dissolution of the synthesized compounds (∼10^–3 M). […]

[9] = I = 0.15 M NaNO3, read-out: pKa, H2L^2+ ⇌ H^+ + HL^+
[10] = UV-vis spectrophotometric titrations, T = 25 °C, I = 0.15 M NaNO3

Compound: C1CNCCNCCN1 [TACN, 1,4,7-triazacyclononane]
- pKa, H2L^2+ ⇌ H^+ + HL^+ [1]: 6.86
- pKa, H3L^3+ ⇌ H^+ + H2L^2+ [1]: 2.1
- pKa, HL^+ ⇌ H^+ + L [1]: 10.68

Compound: O=C(O)CN1CCN(CC(=O)O)CCN(CC(=O)O)CC1 [NOTA, 1,4,7-triazacyclononane-1,4,7-triacetic acid, reference compound]
- pCu^2+ (−log[Cu^2+]free) [2]: 18.2

Compound: CCCCN1CCN(CCCC)CCN(CCCC)CC1 [TACN-n-Bu, 1,4,7-tris-n-butyl-1,4,7-triazacyclononane]
- pKa [3, 9]: 5.04 ± 0.05
- pKa ([4]; water, pH potentiometry, read-out: pKa, H2L^2+ ⇌ H^+ + HL^+): 5 ± 0.05
- Time to reach Cu2+ complexation equilibrium ([5]; neutral pH, equimolar metal-to-ligand 10^-4 M): 8 h
- logβ, Cu^2+ + HL^+ ⇌ [CuHL]^3+ [2, 10]: 6.2 ± 0.1
- logβ, Cu^2+ + HL^+ ⇌ [CuL]^2+ + H^+ [2, 10]: –0.04 ± 0.15

Compound: CSCCN1CCN(CCSC)CCN(CCSC)CCN(CCSC)CC1 [DO4S, 1,4,7,10-tetrakis-[2-(methylsulfanyl)ethyl]-1,4,7,10-tetraazacyclododecane]
- Percentage of intact [64Cu]Cu2+ complex in human serum [6]: 20%

Compound: CN1CCN(C)CCN(C)CC1 [TACN-Me, 1,4,7-trimethyl-1,4,7-triazacyclonane]
- pKa, H2L^2+ ⇌ H^+ + HL^+ [1]: 5.1
- pKa, H3L^3+ ⇌ H^+ + H2L^2+ [1]: –0.4
- pKa, HL^+ ⇌ H^+ + L [1]: 11.7

Compound: CSCCN1CCN(CCSC)CCN(CCSC)CC1 [NO3S]
- pKa [3, 9]: 2.7 ± 0.02
- pKa ([3]; I = 0.15 M NaNO3, read-out: pKa, HL^+ ⇌ H^+ + L): 12.72 ± 0.08
- pKa ([4]; 1:1 water/methanol, pH potentiometry in 1:1 water/methanol, read-out: pKa, H2L^2+ ⇌ H^+ + HL^+): 2.33 ± 0.04
- pKa ([4]; 1:1 water/methanol, pH potentiometry in 1:1 water/methanol, read-out: pKa, HL^+ ⇌ H^+ + L): 11.52 ± 0.01
- Time to reach Cu2+ complexation equilibrium ([5]; pH = 1.0, equimolar metal-to-ligand 10^-4 M): ~14 h
- Time to reach Cu2+ complexation equilibrium ([5]; pH = 4.0, equimolar metal-to-ligand 10^-4 M): ~0.167 h
- Time to reach Cu2+ complexation equilibrium ([5]; pH = 7.1 (neutral), equimolar metal-to-ligand 10^-4 M): < 0.017 h
- logβ, Cu^2+ + L + H2O ⇌ [CuL(OH)]^+ + H^+ [2, 10]: 9.08 ± 0.03
- logβ, Cu^2+ + L ⇌ [CuL]^2+ [2, 10]: 18.41 ± 0.05
- pCu^2+ (−log[Cu^2+]free) [2]: 14.3
- Increase in Cu2+ complex stability (pCu^2+) with respect to TACN-n-Bu ([2]; physiological pH): 6 orders of magnitude
- pCu^+ ([7]; calculated at CL = 10^-5 M, CCu+ = 10^-6 M, pH = 7.4): 14.0
- logβ, Cu^+ + L ⇌ [CuL]^+ ([7]; obtained from voltametric data, T = 25 °C, I = 0.15 M NaNO3): 18.36 ± 0.05
- Solubility in water of the completely deprotonated neutral form (L) [8]: sparingly soluble
